Test results as given in ChEMBL document CHEMBL1139551, “2,3-Ethylene- and 2,3-trimethylene-bridged analogues of the group III metabotropic glutamate receptor ligand 2-amino-4-phosphonobutanoic acid” (Bioorg Med Chem Lett, 2005).

How the values were obtained:
[1] = biological target: T1, Metabotropic glutamate receptor 4 (Homo sapiens, UniProt Q14833); assay: Effective concentration which exhibit agonistic activity at metabotropic glutamate 4 receptor stably expressed in AV12 cells; type: functional, cell-based
T1 sequence (Q14833 whole entry): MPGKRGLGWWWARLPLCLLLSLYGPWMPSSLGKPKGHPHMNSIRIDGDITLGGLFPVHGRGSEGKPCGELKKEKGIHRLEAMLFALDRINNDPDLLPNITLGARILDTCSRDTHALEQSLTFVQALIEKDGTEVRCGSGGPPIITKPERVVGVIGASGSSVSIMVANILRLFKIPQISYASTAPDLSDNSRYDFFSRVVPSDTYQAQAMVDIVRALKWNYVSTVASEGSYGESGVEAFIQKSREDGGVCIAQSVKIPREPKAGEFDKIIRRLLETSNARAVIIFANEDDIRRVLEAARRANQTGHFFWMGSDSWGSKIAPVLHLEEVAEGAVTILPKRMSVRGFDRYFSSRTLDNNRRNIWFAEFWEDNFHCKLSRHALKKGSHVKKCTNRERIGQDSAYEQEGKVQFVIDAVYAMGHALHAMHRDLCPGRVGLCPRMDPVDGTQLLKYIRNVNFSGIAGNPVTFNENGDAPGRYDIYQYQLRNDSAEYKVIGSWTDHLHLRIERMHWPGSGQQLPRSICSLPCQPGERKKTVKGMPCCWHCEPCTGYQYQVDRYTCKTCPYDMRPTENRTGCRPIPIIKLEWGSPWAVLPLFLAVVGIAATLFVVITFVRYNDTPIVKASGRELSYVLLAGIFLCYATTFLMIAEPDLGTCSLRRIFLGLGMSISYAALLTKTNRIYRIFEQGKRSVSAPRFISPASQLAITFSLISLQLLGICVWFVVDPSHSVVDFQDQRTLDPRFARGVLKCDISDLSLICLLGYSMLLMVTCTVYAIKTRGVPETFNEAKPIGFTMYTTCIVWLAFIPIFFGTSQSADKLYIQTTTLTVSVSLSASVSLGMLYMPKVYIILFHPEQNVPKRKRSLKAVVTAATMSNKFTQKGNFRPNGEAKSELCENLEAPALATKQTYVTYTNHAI

[2] = biological target: T1, Metabotropic glutamate receptor 4; assay: Agonistic activity towards group III Metabotropic glutamate receptor stably expressed in AV12 cells when tested up to 200 uM; NS means no significant activity; type: functional, cell-based

SMILES | EC50 [1] | Activity [2]
NC1(C(=O)O)CC1CP(=O)(O)O (stereo in doubt; 3) | 7.9 µM | 
NC1(C(=O)O)CC1CP(=O)(O)O (stereo in doubt; 4) | 0.58 µM | 
NC1(C(=O)O)CCC1CP(=O)(O)O (stereo in doubt; 5) |  | No significant activity
NC1(C(=O)O)CCC1CP(=O)(O)O (stereo in doubt; 6) |  | No significant activity
NC1(C(=O)O)CCCC1CP(=O)(O)O (stereo in doubt; 7) |  | No significant activity
NC1(C(=O)O)CCCC1CP(=O)(O)O (stereo in doubt; 8) |  | No significant activity
